# Measurements reported in patent publication US8574831B2, “Mutational profiles in HIV-1 reverse transcriptase correlated with phenotypic drug resistance” (Virco N.V., priority 2000, dated 2013).
# Test system: HIV with mutations in the HIV protease sequence
# Assay: Phenotypic fold resistance to protease inhibitors, protease mutations 84A/84L/84C/54M/54L/54V in a background (Examples 8-13)
# Format: cell-based, HIV-1
# Method in brief: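 Recombinant-virus phenotyping: patient-derived PR/RT sequences amplified by PCR and recombined in CD4+ T cells into an HXB2 proviral clone deleted for those sequences. Chimeric viruses grown across drug concentrations; IC50 determined, and fold-resistance expressed as IC50 ratio versus wild-type susceptible laboratory HIV-1 tested in parallel.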
structure (smiles),measurement,setting,value
"CC(C)(C)NC(=O)[C@@H]1C[C@@H]2CCCC[C@@H]2CN1C[C@@H](O)[C@H](Cc1ccccc1)NC(=O)[C@H](CC(N)=O)NC(=O)c1ccc2ccccc2n1 [Saquinavir, saquinavir]",mean fold increase in resistance,"Table 9 #1, protease genotype WT",0.9 fold
same,mean fold increase in resistance,"Table 9 #2, protease genotype 10I",0.9 fold
same,mean fold increase in resistance,"Table 9 #3, protease genotype 46I",0.6 fold
same,mean fold increase in resistance,"Table 9 #4, protease genotype 46I + 84V",2.5 fold
same,mean fold increase in resistance,"Table 9 #5, protease genotype 46I + 84A",38.1 fold
same,mean fold increase in resistance,"Table 9 #6, protease genotype 10I + 46I",0.5 fold
same,mean fold increase in resistance,"Table 9 #7, protease genotype 10I + 46I + 84V",4.1 fold
same,mean fold increase in resistance,"Table 9 #8, protease genotype 10I + 46I + 84A",48.2 fold
same,mean fold increase in resistance,"Table 9 #9, protease genotype 10L/I + 46I + 84A",46.4 fold
same,mean fold increase in resistance,"Table 9 #10, protease genotype 10I + 46I + 84A",42.8 fold
same,mean fold increase in resistance,"Table 9 #11, protease genotype 46I + 71V",0.6 fold
same,mean fold increase in resistance,"Table 9 #12, protease genotype 46I + 71V + 84V/I",0.6 fold
same,mean fold increase in resistance,"Table 9 #13, protease genotype 46I + 71V + 84A",47.7 fold
same,mean fold increase in resistance,"Table 9 #14, protease genotype 10F + 46I + 71V",1.9 fold
same,mean fold increase in resistance,"Table 9 #15, protease genotype 10I + 46I + 71V + 84V",15.9 fold
same,mean fold increase in resistance,"Table 9 #16, protease genotype 10I + 46I + 71V + 84A",48.2 fold
same,mean fold increase in resistance,"Table 9 #17, protease genotype 10V + 46I + 71T + 84A",48.2 fold
same,mean fold increase in resistance,"Table 9 #18, protease genotype 10I + 46I + 71V + 77I",1.3 fold
same,mean fold increase in resistance,"Table 9 #19, protease genotype 10I + 46I + 71V + 77I + 84V",2.5 fold
same,mean fold increase in resistance,"Table 9 #20, protease genotype 10I + 46I + 71V + 77I + 84A",47.1 fold
same,mean fold increase in resistance,"Table 9 #21, protease genotype 10I + 33L/I + 46I + 71V + 77V/I + 84A",44.7 fold
same,mean fold increase in resistance,"Table 10 #1, protease genotype 10I + 36I + 71V",1.6 fold
same,mean fold increase in resistance,"Table 10 #2, protease genotype 10I + 36I + 71I + 84V",0.8 fold
same,mean fold increase in resistance,"Table 10 #3, protease genotype 10I + 36I + 71I + 84L",10.2 fold
same,mean fold increase in resistance,"Table 11 #1, protease genotype WT",0.9 fold
same,mean fold increase in resistance,"Table 11 #2, protease genotype 84V",0.7 fold
same,mean fold increase in resistance,"Table 11 #3, protease genotype 84C",26.4 fold
same,mean fold increase in resistance,"Table 11 #4, protease genotype 10I",0.9 fold
same,mean fold increase in resistance,"Table 11 #5, protease genotype 10I + 84V",2.7 fold
same,mean fold increase in resistance,"Table 11 #6, protease genotype 10I + 84C",37.1 fold
same,mean fold increase in resistance,"Table 11 #7, protease genotype 77I",0.3 fold
same,mean fold increase in resistance,"Table 11 #8, protease genotype 77I + 84V",3.5 fold
same,mean fold increase in resistance,"Table 11 #9, protease genotype 77I + 84C",18.1 fold
same,mean fold increase in resistance,"Table 11 #10, protease genotype 77I + 84C",18.5 fold
same,mean fold increase in resistance,"Table 11 #11, protease genotype 10I + 24I + 36I + 46I + 71V + 84C",46.4 fold
same,Fold change in IC50,"Table 12, V19263, genotype 77I",0.3 fold
same,Fold change in IC50,"Table 12, V20160, genotype WT",0.9 fold
same,Fold change in IC50,"Table 12, V021667, genotype 10I",0.9 fold
same,Fold change in IC50,"Table 12, V030496, genotype 10I + 77I",0.3 fold
same,Fold change in IC50,"Table 12, V048869, genotype 10I + 54M + 77I + 90M",5.1 fold
same,Fold change in IC50,"Table 12, V048872, genotype 33F + 54M + 77I + 90M",5.2 fold
same,Fold change in IC50,"Table 12, V048873, genotype 33F + 54M + 77I + 90M",3.1 fold
same,Fold change in IC50,"Table 12, V048877, genotype 10I + 33F + 77I + 90M",1.5 fold
same,Fold change in IC50,"Table 12, V048878, genotype 10I + 33F + 54M + 71V + 77I + 90M",4.0 fold
same,Fold change in IC50,"Table 12, V048879, genotype 10I + 33F + 54M + 71V + 77I + 90M",51.8 fold
same,Fold change in IC50,"Table 12, V048880, genotype 10I + 33F + 77I + 90M",2.7 fold
same,Fold change in IC50,"Table 12, V052940, genotype 71V",0.8 fold
same,Fold change in IC50,"Table 12, V052942, genotype 10I + 71V",0.8 fold
same,Fold change in IC50,"Table 12, V052943, genotype 10I + 90M",1.1 fold
same,Fold change in IC50,"Table 12, V052944, genotype 10I + 90M",0.7 fold
same,Fold change in IC50,"Table 12, V052945, genotype 77I + 90M",1.4 fold
same,Fold change in IC50,"Table 12, V052946, genotype 71V + 90M",1.4 fold
same,Fold change in IC50,"Table 12, V052947, genotype 10I + 77I + 90M",3.9 fold
same,Fold change in IC50,"Table 12, V052948, genotype 10I + 71V + 90M",4.8 fold
same,Fold change in IC50,"Table 12, V052949, genotype 10I + 71V + 77I + 90M",2.1 fold
same,Fold change in IC50,"Table 12, V052950, genotype 33F",1.2 fold
same,Fold change in IC50,"Table 12, V052951, genotype 33F + 77I",0.4 fold
same,Fold change in IC50,"Table 12, V052953, genotype 10I + 33F + 77I",1.2 fold
same,Fold change in IC50,"Table 12, V052954, genotype 33F + 77I + 90M",1.7 fold
same,Fold change in IC50,"Table 12, V052955, genotype 33F + 71V + 90M",20.4 fold
same,Fold change in IC50,"Table 12, V052977, genotype 10I + 33F + 54M",0.5 fold
same,Fold change in IC50,"Table 12, V052978, genotype 10I + 33F + 54M + 71V + 90M",9.9 fold
same,Fold change in IC50,"Table 12, V052979, genotype 10I + 54M",1.4 fold
same,Fold change in IC50,"Table 12, V052980, genotype 10I + 54M + 90M",1.4 fold
same,Fold change in IC50,"Table 12, V052981, genotype 10I + 54M + 71V + 90M",5.4 fold
same,Fold change in IC50,"Table 12, V052982, genotype 10I + 54M + 71V + 77I + 90M",4.2 fold
same,Fold change in IC50,"Table 12, V053832, genotype 10I + 33F",0.5 fold
